The values below come from US9133158B2, “Bicyclic dihydroisoquinoline-1-one derivatives” (Hoffmann-La Roche Inc., priority 2011, dated 2015).

One assay addresses T1, human CYP11B2 (Homo sapiens, UniProt P19099).
T1 construct: expressed in transfected cells
T1 sequence (P19099 25-503): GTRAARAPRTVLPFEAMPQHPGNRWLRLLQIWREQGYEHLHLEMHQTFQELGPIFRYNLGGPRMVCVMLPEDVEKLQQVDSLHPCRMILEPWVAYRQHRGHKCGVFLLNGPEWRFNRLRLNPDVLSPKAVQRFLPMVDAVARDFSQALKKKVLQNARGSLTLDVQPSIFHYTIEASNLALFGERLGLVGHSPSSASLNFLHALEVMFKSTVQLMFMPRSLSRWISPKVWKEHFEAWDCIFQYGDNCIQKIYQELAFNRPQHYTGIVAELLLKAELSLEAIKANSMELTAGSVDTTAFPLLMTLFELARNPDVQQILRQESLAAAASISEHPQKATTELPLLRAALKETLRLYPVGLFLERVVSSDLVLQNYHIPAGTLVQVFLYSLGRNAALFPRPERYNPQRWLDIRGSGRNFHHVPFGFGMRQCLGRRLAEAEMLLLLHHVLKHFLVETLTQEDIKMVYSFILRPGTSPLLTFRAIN
The assay can be described thus: G-402 cellular enzyme assay, human CYP11B2 (aldosterone release, HTRF). The assay is classed as cell-based. Conditions: G-402 cells, 1 μM Deoxycorticosterone. In outline:
(§1)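 Inhibition of steroid release was taken as enzyme inhibition. CYP11B1 assays used 1 μM deoxycortisol with cortisol detection, CYP11B2 assays 1 μM deoxycorticosterone with aldosterone detection, both by HTRF after 16 h in stable G-402 cells; EC50 from least-squares MMF fit.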
A general note: TR-FRET usually uses a lanthanide donor and a delayed reading to cut background.

A further assay concerns the target T2, human CYP11B1 (Homo sapiens, UniProt P15538).
T2 construct: expressed in transfected cells
T2 sequence (P15538 25-503): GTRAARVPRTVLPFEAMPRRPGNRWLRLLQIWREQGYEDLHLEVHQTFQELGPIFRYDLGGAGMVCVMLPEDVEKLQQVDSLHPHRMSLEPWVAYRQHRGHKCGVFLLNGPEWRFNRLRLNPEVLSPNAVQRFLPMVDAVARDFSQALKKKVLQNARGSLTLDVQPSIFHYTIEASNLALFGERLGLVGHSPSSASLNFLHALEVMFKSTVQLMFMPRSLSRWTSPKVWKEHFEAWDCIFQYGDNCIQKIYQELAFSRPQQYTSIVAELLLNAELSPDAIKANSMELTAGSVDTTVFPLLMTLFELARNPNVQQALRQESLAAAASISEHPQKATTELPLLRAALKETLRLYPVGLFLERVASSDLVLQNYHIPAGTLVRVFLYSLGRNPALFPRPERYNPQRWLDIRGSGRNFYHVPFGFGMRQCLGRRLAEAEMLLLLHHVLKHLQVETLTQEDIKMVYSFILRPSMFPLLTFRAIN
The assay can be described thus: G-402 cellular enzyme assay, human CYP11B1 (cortisol release, HTRF). Format: cell-based. Conditions: G-402 cells, 1 μM Deoxycortisol. The procedure, abridged:
as §1

A word on the EC50: it is the concentration at which the effect is half-maximal. As for `CC(C)OCc1ccncc1N1CCc2cc(Cl)ccc2C1=O` [Example 77, 6-Chloro-2-(4-isopropoxy-methyl-pyridin-3-yl)-3,4-dihydro-2H-isoquinolin-1-one], the results for the EC50 on human CYP11B2 and on human CYP11B1 were 665 nM and 12800 nM, respectively.

On to `O=C1c2ccc(Cl)cc2CCN1c1cncc(Cn2ccc3c(F)cccc32)c1` [Example 186, 6-Chloro-2-[5-(4-fluoro-indol-1-ylmethyl)-pyridin-3-yl]-3,4-dihydro-2H-isoquinolin-1-one], for which the EC50 on human CYP11B2 stood at 23.2 nM; on human CYP11B1, 211 nM.

As to `O=C1c2ccc(Cl)cc2CCN1c1cncc(-c2cn[nH]c2)c1` [Example 229, 6-Chloro-2-[5-(1H-pyrazol-4-yl)-pyridin-3-yl]-3,4-dihydro-2H-isoquinolin-1-one], the EC50 at human CYP11B2 was found to be 204 nM; at human CYP11B1 it was 745 nM.

With `O=C1c2ccc(Cl)cc2CCN1c1cncc(Cc2c(F)cccc2Cl)c1` [Example 215, 6-Chloro-2-[5-(2-chloro-6-fluoro-benzyl)-pyridin-3-yl]-3,4-dihydro-2H-isoquinolin-1-one], the EC50 at human CYP11B2 worked out at 29.6 nM; on human CYP11B1 it was 137 nM.

With `O=C(c1cncc(N2CCc3cc(Cl)ccc3C2=O)c1)N1CCC(O)C1` (stereo not drawn) [Example 40, 6-Chloro-2-[5-(3-hydroxy-pyrrolidine-1-carbonyl)-pyridin-3-yl]-3,4-dihydro-2H-isoquinolin-1-one], the EC50 at human CYP11B2 came to 1680 nM; at human CYP11B1, 10500 nM.

With `CC(=O)N1CCN(c2cncc(N3C(=O)c4ccc(Cl)cc4C3(C)C)c2)CC1` [Example 455, 2-[5-(4-Acetyl-piperazin-1-yl)-pyridin-3-yl]-5-chloro-3,3-dimethyl-2,3-dihydro-isoindol-1-one], the EC50 on human CYP11B2 worked out at 8.6 nM; on human CYP11B1 it was 717 nM.

Regarding `COC[C@@H]1CCCN1Cc1cncc(N2Cc3cc(Cl)ccc3C2=O)c1` [Example 113, 5-Chloro-2-[5-((S)-2-methoxymethyl-pyrrolidin-1-ylmethyl)-pyridin-3-yl]-2,3-dihydro-isoindol-1-one], the EC50 on human CYP11B2 was determined as 342 nM; at human CYP11B1, 1360 nM.

As for `CC1(C)c2cc(Cl)ccc2C(=O)N1c1cncc(C2CCCN(S(C)(=O)=O)C2)n1` (stereo not drawn) [Example 465, 5-Chloro-2-[6-(1-methanesulfonyl-piperidin-3-yl)-pyrazin-2-yl]-3,3-dimethyl-2,3-dihydro-isoindol-1-one], the EC50 came out at 66.9 nM at human CYP11B2 and 2270 nM at human CYP11B1.

As for `COCc1c(F)cncc1N1CCc2cc(Cl)ccc2C1=O` [Example 75, 6-Chloro-2-(5-fluoro-4-methoxymethyl-pyridin-3-yl)-3,4-dihydro-2H-isoquinolin-1-one], the EC50 on human CYP11B2 turned out to be 166 nM; at human CYP11B1, 2760 nM.

As for `COc1cncc(N2CC(C)(C)c3cc(Cl)ccc3C2=O)c1` [Example 103, 6-Chloro-2-(5-methoxy-pyridin-3-yl)-4,4-dimethyl-3,4-dihydro-2H-isoquinolin-1-one], the EC50 at human CYP11B2 stood at 564 nM; on human CYP11B1, 11000 nM.

Regarding `CS(=O)(=O)NCc1cncc(N2CCc3cc(Cl)ccc3C2=O)c1` [Example 152, N-[5-(6-Chloro-1-oxo-3,4-dihydro-1H-isoquinolin-2-yl)-pyridin-3-ylmethyl]-methanesulfonamide], the figures for the EC50 on human CYP11B2 and at human CYP11B1 were 295 nM and 11600 nM, respectively.

As to `CC1(C)c2cc(Cl)ccc2C(=O)N1c1cncc(CNC(=O)c2ncccc2Cl)c1` [Example 431, 3-Chloro-pyridine-2-carboxylic acid [5-(6-chloro-1,1-dimethyl-3-oxo-1,3-dihydro-isoindol-2-yl)-pyridin-3-ylmethyl]-amide], the figures for the EC50 at human CYP11B2 and at human CYP11B1 were 44.4 nM and 912 nM, respectively.

Regarding `CCS(=O)(=O)NC1CCCc2c1cncc2N1Cc2cc(Cl)ccc2C1=O` (racemic) [Example 315, Ethanesulfonic acid [4-(5-chloro-1-oxo-1,3-dihydro-isoindol-2-yl)-5,6,7,8-tetrahydro-isoquinolin-8-yl]-amide], the results for the EC50 at human CYP11B2 and at human CYP11B1 were 1050 nM and 31000 nM, respectively.

Take `CC1(C)c2cc(Cl)ccc2C(=O)N1c1cncc(CN2CCNC2=O)c1` [Example 411, 5-Chloro-3,3-dimethyl-2-[5-(2-oxo-imidazolidin-1-ylmethyl)-pyridin-3-yl]-2,3-dihydro-isoindol-1-one]: the figures for the EC50 at human CYP11B2 and on human CYP11B1 were 19.6 nM and 772 nM, respectively.

In the case of `Cn1ncc2c(N3Cc4cc(Cl)ccc4C3=O)cncc21` [Example 116, 5-Chloro-2-(1-methyl-1H-pyrazolo[3,4-c]pyridin-4-yl)-2,3-dihydro-isoindol-1-one], the 50% effective concentration (EC50) at human CYP11B2 is 132 nM; on human CYP11B1, 5130 nM.

On to `Cn1cc(Cc2cncc(N3C(=O)c4ccc(Cl)cc4C3(C)C)c2)cn1` [Example 281, 5-Chloro-3,3-dimethyl-2-[5-(1-methyl-1H-pyrazol-4-ylmethyl)-pyridin-3-yl]-2,3-dihydro-isoindol-1-one], for which the EC50 at human CYP11B2 worked out at 0.4 nM; at human CYP11B1, 3 nM.

`CN1CCN(Cc2cncc(N3C(=O)c4ccc(Cl)cc4C3(C)C)c2)C1=O` [Example 414, 5-Chloro-3,3-dimethyl-2-[5-(3-methyl-2-oxo-imidazolidin-1-ylmethyl)-pyridin-3-yl]-2,3-dihydro-isoindol-1-one]: the values for the EC50 on human CYP11B2 and at human CYP11B1 were 30.2 nM and 2040 nM, respectively.

`O=C1c2ccc(Cl)cc2CCN1c1cncc(Cc2ccccc2C(F)(F)F)c1` [Example 213, 6-Chloro-2-[5-(2-trifluoromethyl-benzyl)-pyridin-3-yl]-3,4-dihydro-2H-isoquinolin-1-one]: the EC50 worked out at 39.1 nM on human CYP11B2 and 278 nM on human CYP11B1.

Regarding `CC1(C)c2cc(Cl)ccc2C(=O)N1c1cncc(CN2CCCC2=O)c1` [Example 413, 5-Chloro-3,3-dimethyl-2-[5-(2-oxo-pyrrolidin-1-ylmethyl)-pyridin-3-yl]-2,3-dihydro-isoindol-1-one], the values for the EC50 at human CYP11B2 and at human CYP11B1 were 20.7 nM and 813 nM, respectively.

Take `CC(=O)N1CCC(Oc2cncc(N3C(=O)c4ccc(Cl)cc4C3(C)C)c2)CC1` [Example 449, 2-[5-(1-Acetyl-piperidin-4-yloxy)-pyridin-3-yl]-5-chloro-3,3-dimethyl-2,3-dihydro-isoindol-1-one]: the EC50 at human CYP11B2 was 2.8 nM; at human CYP11B1, 235 nM.

For the compound `CCC(=O)N[C@H]1CCc2c1cncc2N1C(=O)c2ccc(Cl)cc2[C@@H]1C` (single isomer, unassigned) [Example 378, N-[(S or R)-4-((S or R)-5-Chloro-3-methyl-1-oxo-1,3-dihydro-isoindol-2-yl)-6,7-dihydro-5H-[2]pyrindin-7-yl]-propionamide], the EC50 at human CYP11B2 was 212 nM; on human CYP11B1, 14600 nM.

As for `O=C(Nc1ccccc1)c1cncc(N2CCc3cc(Cl)ccc3C2=O)c1` [Example 46, 5-(6-Chloro-1-oxo-3,4-dihydro-1H-isoquinolin-2-yl)-N-phenyl-nicotinamide], the results for the EC50 on human CYP11B2 and at human CYP11B1 were 698 nM and 13900 nM, respectively.

Consider `COc1ccc2c(n1)C(C)(C)N(c1cncc(-c3ccnn3C)c1)C2=O` [Example 426, 2-Methoxy-7,7-dimethyl-6-[5-(2-methyl-2H-pyrazol-3-yl)-pyridin-3-yl]-6,7-dihydro-pyrrolo[3,4-b]pyridin-5-one], for which the 50% effective concentration (EC50) is 12.1 nM on human CYP11B2 and 572 nM on human CYP11B1.

As for `CC(C)Oc1cncc(N2C(=O)c3ccc(Cl)cc3C2(C)C)c1` [Example 304, 5-Chloro-2-(5-isopropoxy-pyridin-3-yl)-3,3-dimethyl-2,3-dihydro-isoindol-1-one], the EC50 at human CYP11B2 came out at 2.4 nM; on human CYP11B1, 78.1 nM.

`CC1(C)c2cc(Cl)ccc2C(=O)N1c1cccnc1` [Example 128, 5-Chloro-3,3-dimethyl-2-pyridin-3-yl-2,3-dihydro-isoindol-1-one]: the EC50 amounted to 108 nM on human CYP11B2 and 4280 nM on human CYP11B1.

`O=C1c2ccc(Cl)cc2CCN1c1cncc(COC2CCCC2)c1` [Example 197, 6-Chloro-2-(5-cyclopentyloxymethyl-pyridin-3-yl)-3,4-dihydro-2H-isoquinolin-1-one]: the values for the concentration for a half-maximal effect (EC50) at human CYP11B2 and on human CYP11B1 were 46.8 nM and 555 nM, respectively.

On to `CCC(=O)N[C@H]1CCCc2c1cncc2N1C(=O)c2ccc(Cl)cc2[C@@H]1C` (single isomer, unassigned) [Example 362, N-[(S or R)-4-((S or R)-5-Chloro-3-methyl-1-oxo-1,3-dihydro-isoindol-2-yl)-5,6,7,8-tetrahydro-isoquinolin-8-yl]-propionamide], for which the EC50 on human CYP11B2 is 53.2 nM; at human CYP11B1 it was 6090 nM.
